Measurements from US11492345B2, “Compounds and their methods of use” (Praxis Precision Medicines, Inc., priority 2017, dated 2022).

target: T1, human Nav1.6 (hNav1.6) (Homo sapiens, UniProt Q9UQD0); assay: Modulation of late sodium current (INaL), PatchXpress electrophysiology; format: cell-based; settings: HEK293; 1 μM compound; HEK-293 cells expressing recombinant human Nav channel; late current evoked by 300 nM ATX-II; steady-state inhibition; read-out: INaL v1.6 (1 μM, % Inhibition)
T1 construct: expressed in transfected cells; host or cells: HEK-293 (G418 selection)
Procedure: Functional characterization of exemplary compounds to modulate INaL expressed by the Nav1.6 voltage-gated sodium channel was accomplished using the PatchXpress™ high throughput electrophysiology platform (Molecular Devices, Sunnyvale, Calif.). HEK-293 cells expressing recombinant, human Nav1.6 (hNav1.6) were grown in DMEM/high-glucose Dulbecco's modified, 10% FBS, 2 mM sodium pyruvate, 10 mM HEPES and 400 μg/mL G418. Cells were grown to 50%-80% confluency prior to harvesting. Trypsinized cells were washed, allowed to recover for 1 hour and then resuspended in extracellular recording solution at a concentration of 1×10^6 cells/ml. The onboard liquid handling facility of the PatchXpress was used for dispensing cells and applying test compounds. Nav late currents were evoked by the application of 300 nM ATX-II. INaL was evoked by depolarizing pulses to 0 mV for 200 ms from a non-inactivating holding potential (e.g., −120 mV) at a frequency of 0.1 Hz. INaL amplitude and stability were determined by analyzing the mean current amplitude over the final 20 ms of the test pulse. […] Percent steady-state inhibition of INaL was calculated as: [(INaL_compound)/(INaL_control)]*100, where INaL_compound and INaL_control represent INaL recorded in the presence or absence of compound, respectively.

T1 sequence (Q9UQD0 whole entry): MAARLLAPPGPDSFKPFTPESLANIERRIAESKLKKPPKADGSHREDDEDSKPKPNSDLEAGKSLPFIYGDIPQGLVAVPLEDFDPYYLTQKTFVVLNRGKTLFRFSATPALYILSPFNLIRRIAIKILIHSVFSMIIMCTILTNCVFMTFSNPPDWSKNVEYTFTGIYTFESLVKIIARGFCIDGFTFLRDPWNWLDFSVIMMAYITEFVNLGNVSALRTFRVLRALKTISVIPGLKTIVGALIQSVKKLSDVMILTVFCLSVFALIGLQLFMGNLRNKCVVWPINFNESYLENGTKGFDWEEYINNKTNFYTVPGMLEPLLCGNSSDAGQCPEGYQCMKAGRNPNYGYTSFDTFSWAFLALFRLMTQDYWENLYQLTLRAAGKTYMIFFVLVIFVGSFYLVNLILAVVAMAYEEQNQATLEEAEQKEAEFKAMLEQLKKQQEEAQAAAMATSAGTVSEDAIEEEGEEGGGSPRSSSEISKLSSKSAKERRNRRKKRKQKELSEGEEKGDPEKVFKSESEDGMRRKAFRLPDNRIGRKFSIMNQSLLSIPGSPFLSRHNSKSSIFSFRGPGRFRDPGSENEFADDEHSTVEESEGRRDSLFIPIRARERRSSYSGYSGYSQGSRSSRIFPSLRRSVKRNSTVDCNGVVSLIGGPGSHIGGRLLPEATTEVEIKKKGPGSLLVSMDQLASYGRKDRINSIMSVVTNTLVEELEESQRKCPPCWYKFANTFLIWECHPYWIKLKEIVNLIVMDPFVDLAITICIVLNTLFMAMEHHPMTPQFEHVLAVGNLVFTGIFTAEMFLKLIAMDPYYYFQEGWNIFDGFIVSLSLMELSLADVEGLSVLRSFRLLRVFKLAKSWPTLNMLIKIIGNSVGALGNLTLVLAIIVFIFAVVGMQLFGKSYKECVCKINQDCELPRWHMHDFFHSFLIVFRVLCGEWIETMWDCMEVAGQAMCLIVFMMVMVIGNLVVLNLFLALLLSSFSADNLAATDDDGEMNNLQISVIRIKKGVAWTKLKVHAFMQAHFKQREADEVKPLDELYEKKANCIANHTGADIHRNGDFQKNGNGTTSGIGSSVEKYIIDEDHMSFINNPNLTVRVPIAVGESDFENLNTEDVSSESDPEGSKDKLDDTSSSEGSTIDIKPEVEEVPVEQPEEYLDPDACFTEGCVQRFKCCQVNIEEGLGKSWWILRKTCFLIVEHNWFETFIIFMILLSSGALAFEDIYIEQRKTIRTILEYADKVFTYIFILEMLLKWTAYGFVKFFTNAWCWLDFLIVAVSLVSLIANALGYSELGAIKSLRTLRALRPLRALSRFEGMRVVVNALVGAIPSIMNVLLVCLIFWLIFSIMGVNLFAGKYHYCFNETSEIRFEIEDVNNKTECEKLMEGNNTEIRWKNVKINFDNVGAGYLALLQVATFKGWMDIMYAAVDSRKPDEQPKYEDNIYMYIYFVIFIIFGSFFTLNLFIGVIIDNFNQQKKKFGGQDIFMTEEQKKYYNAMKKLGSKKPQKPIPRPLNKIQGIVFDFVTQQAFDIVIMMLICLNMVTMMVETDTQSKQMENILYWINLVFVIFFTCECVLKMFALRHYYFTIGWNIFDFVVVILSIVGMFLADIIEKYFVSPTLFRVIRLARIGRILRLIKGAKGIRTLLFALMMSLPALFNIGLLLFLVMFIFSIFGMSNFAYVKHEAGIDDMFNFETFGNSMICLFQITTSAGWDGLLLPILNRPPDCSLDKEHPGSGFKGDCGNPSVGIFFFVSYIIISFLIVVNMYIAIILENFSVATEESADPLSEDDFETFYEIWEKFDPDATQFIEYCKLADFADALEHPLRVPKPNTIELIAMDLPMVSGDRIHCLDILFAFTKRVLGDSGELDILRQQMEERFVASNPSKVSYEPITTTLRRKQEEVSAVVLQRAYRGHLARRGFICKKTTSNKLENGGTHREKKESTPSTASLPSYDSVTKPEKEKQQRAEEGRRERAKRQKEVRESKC

| Compound | inhibition at 1 µM [%] |
| --- | --- |
| O=c1[nH]c2cc(-c3ccc(OC(F)(F)F)cc3)ccc2o1 [Compound 5, 5-[4-(trifluoromethoxy)phenyl]-3H-1,3-benzoxazol-2-one] | > 70 |
| O=c1oc2ccc(-c3ccc(OC(F)(F)F)cc3)cc2n1C[C@H]1CCOC1 (single isomer, unassigned) [Compound 70] | 30 to 70 |
| Cc1nnc(CCN2C(=O)Cc3ccc(-c4ccc(OC(F)(F)F)cc4)cc32)o1 [Compound 21] | 30 to 70 |
| O=C1CCCN1CCCn1c(=O)oc2ccc(-c3ccc(OC(F)(F)F)cc3)cc21 [Compound 30] | 30 to 70 |
| O=c1oc2ccc(-c3ccc(OC(F)(F)F)cc3)cc2n1Cc1cncnc1 [Compound 84] | > 70 |
| CCN(CC)C(=O)Cn1c(=O)oc2ccc(-c3ccc(OC(F)(F)F)cc3)cc21 [Compound 39] | > 70 |
| COCCn1c(=O)oc2ccc(-c3ccc(OC(F)(F)F)cc3)cc21 [Compound 9] | < 30 |
| CNC(=O)Cn1c(=O)oc2ccc(-c3ccc(OC(F)(F)F)cc3)cc21 [Compound 41] | < 30 |
| O=c1oc2ccc(-c3ccc(OC(F)(F)F)cc3)nc2n1C[C@@H]1CCOC1 (single isomer, unassigned) [Compound 61] | > 70 |
| C[C@@H](O)CCn1c(=O)oc2ccc(-c3ccc(OC(F)(F)F)cc3)cc21 [Compound 97] | > 70 |
| O=c1oc2ccc(-c3ccc(OC(F)(F)F)cc3)nc2n1C[C@H]1CCOC1 (single isomer, unassigned) [Compound 62] | > 70 |
| NC(=O)Cn1c(=O)oc2ccc(-c3ccc(OC(F)(F)F)cc3)cc21 [Compound 42] | < 30 |
| O=C(O)Cn1c(=O)oc2ccc(-c3ccc(OC(F)(F)F)cc3)cc21 [Compound 16, 2-[2-oxo-5-[4-(trifluoromethoxy)phenyl]-1,3-benzoxazol-3-yl]acetic acid] | < 30 |
| CC(C(=O)N1CCCC1)n1c(=O)oc2ccc(-c3ccc(OC(F)(F)F)cc3)cc21 (stereo not drawn) [Compound 45] | < 30 |
| O=c1oc2ccc(-c3ccc(OC(F)(F)F)cc3)cc2n1CC(F)(F)F [Compound 2] | 30 to 70 |
| O=c1oc2ccc(-c3ccc(OC(F)(F)F)cc3)cc2n1C[C@@H]1CCCCO1 (single isomer, unassigned) [Compound 58] | > 70 |
| O=c1oc2ccc(-c3ccc(OCC(F)(F)F)nc3)cc2n1CC(F)(F)F [Compound 6] | 30 to 70 |

| Compound | inhibition at 1 µM [%] |
| --- | --- |
| CCN(C)C(=O)Cn1c(=O)oc2ccc(-c3ccc(OC(F)(F)F)cc3)cc21 [Compound 85] | 30 to 70 |
| O=c1oc2ccc(-c3ccc(OC(F)(F)F)cc3)cc2n1Cc1ncccn1 [Compound 50] | 30 to 70 |
| O=c1oc2ccc(-c3ccc(OC(F)(F)F)cc3)nc2n1C[C@H]1CCCO1 (single isomer, unassigned) [Compound 65] | 30 to 70 |
| [2H]C([2H])([2H])C([2H])([2H])n1c(=O)oc2ccc(-c3ccc(OC(F)(F)F)cc3)nc21 [Compound 91] | 30 to 70 |
| O=c1[nH]c2cc(-c3ccc(OC(F)(F)F)cc3)cnc2o1 [Compound 37] | 30 to 70 |
| O=C(O)CCn1c(=O)oc2ccc(-c3ccc(OC(F)(F)F)cc3)cc21 [Compound 24] | < 30 |
| O=C(Cn1c(=O)oc2ccc(-c3ccc(OC(F)(F)F)cc3)nc21)N1CCCC1 [Compound 79] | 30 to 70 |
| Cn1c(=O)oc2ccc(-c3ccc(OC(F)(F)F)cc3)nc21 [Compound 75] | > 70 |
| O=c1oc2ccc(-c3ccc(OC(F)(F)F)cc3)cc2n1CC1CCOC1 (stereo not drawn) [Compound 68] | > 70 |
| O=C(Cn1c(=O)oc2ccc(-c3ccc(OC(F)(F)F)cc3)cc21)N1CCCC1 [Compound 17] | 30 to 70 |
| CCn1c(=O)oc2ccc(-c3ccc(OC(F)(F)F)cc3)nc21 [Compound 76] | > 70 |
| O=c1oc2ccc(-c3ccc(OC(F)(F)F)cc3)nc2n1CCCO [Compound 90] | 30 to 70 |
| Cc1nnc(CCn2c(=O)oc3ccc(-c4ccc(OC(F)(F)F)cc4)cc32)o1 [Compound 3] | > 70 |
| Cc1nnc(Cn2c(=O)oc3ccc(-c4ccc(OC(F)(F)F)cc4)cc32)o1 [Compound 51] | 30 to 70 |
| COCc1cc(OC(F)(F)F)ccc1-c1ccc2oc(=O)n(CC(F)(F)F)c2c1 [Compound 7] | > 70 |
| O=c1oc2ccc(-c3ccc(OC(F)(F)F)cc3)cc2n1C[C@H]1CCCOC1 (single isomer, unassigned) [Compound 73] | > 70 |
| O=c1oc2ccc(-c3ccc(OC(F)(F)F)cc3)cc2n1CCC1CC1 [Compound 19] | > 70 |

Next, values leading:

| inhibition at 1 µM [%] | Compound |
| --- | --- |
| > 70 | Cc1nnc(Cn2c(=O)oc3ccc(-c4ccc(OC(F)(F)F)cc4)nc32)s1 [Compound 155] |
| < 30 | CO[C@H]1CCN(C(=O)Cn2c(=O)oc3ccc(-c4ccc(OC(F)(F)F)cc4)cc32)C1 [Compound 125] |
| > 70 | Cc1cc(Cn2c(=O)oc3ccc(-c4ccc(OC(F)(F)F)cc4)nc32)no1 [Compound 156] |
| 30 to 70 | Cc1cc(OC(F)(F)F)ccc1-c1ccc2oc(=O)n(CCc3ncccn3)c2n1 [Compound 121] |
| < 30 | Cn1cnnc1Cn1c(=O)oc2ccc(-c3ccc(OC(F)(F)F)cc3)nc21 [Compound 163] |
| > 70 | C[C@@H](O)CCn1c(=O)oc2ccc(-c3ccc(OC(F)(F)F)cc3)nc21 (single isomer, unassigned) [Compound 100] |
| > 70 | Cc1nc(Cn2c(=O)oc3ccc(-c4ccc(OC(F)(F)F)cc4)nc32)no1 [Compound 162] |
| > 70 | O=c1oc2ccc(-c3ccc(OC(F)(F)F)cc3)cc2n1Cc1ccncn1 [Compound 132] |
| < 30 | O=c1oc2ccc(-c3ccc(OC(F)F)cc3)nc2n1CCc1ncccn1 [Compound 136] |
| 30 to 70 | O=c1oc2ccc(-c3ccc(OC(F)(F)F)cc3)nc2n1Cc1cn[nH]c1 [Compound 165] |
| 30 to 70 | CS(=O)(=O)N1CCC[C@H]1Cn1c(=O)oc2ccc(-c3ccc(OC(F)(F)F)cc3)cc21 [Compound 113] |
| 30 to 70 | Cc1nnc(Cn2c(=O)oc3ccc(-c4ccc(OC(F)(F)F)cc4)nc32)o1 [Compound 153] |
| > 70 | O=c1oc2ccc(-c3ccc(OC(F)(F)F)cc3)cc2n1CCc1ccncn1 [Compound 147] |
| 30 to 70 | Cn1nccc1Cn1c(=O)oc2ccc(-c3ccc(OC(F)(F)F)cc3)nc21 [Compound 158] |
| 30 to 70 | C[C@@H](Cn1c(=O)oc2ccc(-c3ccc(OC(F)(F)F)cc3)nc21)c1ncccn1 (single isomer, unassigned) [Compound 150] |
| > 70 | O=C(Cn1c(=O)oc2ccc(-c3ccc(OC(F)(F)F)cc3)nc21)N1CCCCC1 [Compound 119] |
| < 30 | O=c1oc2ccc(-c3cnc(OCC(F)(F)F)c(F)c3)nc2n1CCc1ncccn1 [Compound 122] |
| < 30 | O=C(Cn1c(=O)oc2ccc(-c3ccc(OC(F)(F)F)cc3)cc21)N1CC[C@H](O)C1 [Compound 115] |
| 30 to 70 | O=c1oc2ccc(-c3ccc(OC(F)(F)F)cc3)nc2n1C[C@@H]1CC1(F)F (single isomer, unassigned) [Compound 107] |
| > 70 | O=c1oc2ccc(-c3ccc(OC(F)(F)F)cc3)nc2n1CCc1cnccn1 [Compound 123] |
| > 70 | O=c1oc2ccc(-c3ccc(OC(F)(F)F)cc3)nc2n1Cc1cncnc1 [Compound 103] |
| 30 to 70 | C[C@H](O)CCn1c(=O)oc2ccc(-c3ccc(OC(F)(F)F)cc3)cc21 [Compound 98] |
| > 70 | O=c1oc2ccc(-c3ccc(OC(F)(F)F)cc3)nc2n1Cc1cnccn1 [Compound 143] |
| > 70 | Cc1nc(Cn2c(=O)oc3ccc(-c4ccc(OC(F)(F)F)cc4)nc32)co1 [Compound 159] |
| > 70 | O=c1oc2ccc(-c3ccc(OC(F)(F)F)cc3)nc2n1CCc1cncnc1 [Compound 124] |
| > 70 | Cc1cc(Cn2c(=O)oc3ccc(-c4ccc(OC(F)(F)F)cc4)nc32)on1 [Compound 160] |
